Results taken from patent publication US20250387388A1, “COMPOUND AS TRK INHIBITOR AND/OR RET INHIBITOR AND USE THEREOF” (Medinno Pharmaceutical Technology (Zhuhai) Co., Ltd., priority 2022, published 2025).

System: alopecia areata in mice
Experiment: Alopecia areata model in mice (imiquimod)
Type: in vivo, C3H/HeJ mice
Protocol: • Blank control group (no treatment) (N=5) • Blank alopecia areata model group (no treatment) (N=8) • Alopecia areata model+blank excipient group (vehicle treatment: blank gel preparation, dose: 1.5 g/kg per mouse, twice daily per mouse) (N=8) • Alopecia areata model+positive control drug group (compound Betamethasone cream (corticosteroid), twice daily, 50 mg each time per mouse) (N=8) • Alopecia areata model+0.5% MDI-1228 compound gel preparation group (dose: 1.0 g/kg per mouse, twice daily per mouse) (N=8) • Alopecia areata model+1% MDI-1228 compound gel preparation group (dose: 1.5 g/kg per mouse, twice daily per mouse) (N=8) • Alopecia areata model+3% MDI-1228 compound gel preparation group (dose: 1.5 g/kg per mouse, twice daily) (N=8) • Blank alopecia areata model (vehicle treatment: 5% DMSO+75% PEG300+20% EtOH) (N=8)
Modeling: Imiquimod cream was applied to the nape of the animals (no hair removal required), three times a week for three consecutive weeks. The control group was treated with a blank excipient without imiquimod. Each time, a clean medical cotton swab was used to apply approximately 0.03 g of imiquimod evenly over an area of about 1 cm×1 cm, and the application site was cleaned with normal saline before each application. The operation was performed gently to avoid skin abrasions or mechanical hair loss due to friction. […] During the modeling, the hair loss of the mice was recorded.
The blank control group (untreated) received no treatment; the drug groups were treated with the corresponding doses of compound betamethasone cream, blank gel preparation, and MDI-1228 compound gel preparation applied to the skin, twice daily (at 9 AM and 5 PM, with an interval of at least 6 hours). Note: To prevent animals from licking the medication off each other, after the gel was applied, the animals were placed individually in a pad-free independent cage to move around for a period of time to allow the gel to air dry for 1 hour before being returned to the normal feeding cage. Single housing is discouraged as it can lead to depression; wrapping the application area with gauze is also prohibited as it can absorb the medication.
During the treatment period, the local changes in the hair loss area of the mice were observed, and the hair growth and adverse reactions were recorded in detail, and scores were assigned according to the following table.
The reagents and instruments required for HE staining included: Hematoxylin staining solution (AR11800-1, BOSTER); Eosin staining solution (AR11800-2, BOSTER); Ultra-clean advanced mounting medium (YZB, BASO); Scott's blueing solution (G1865, Solarbio), etc. Medication refrigerator (BYC-310, Shandong Bokai Biotech); Microscope (CX41 OLYMPUS); Microtome (BQ-318D, Berne); Electric heating blast drying oven (DHG-9070A, Hengke Scientific Instrument Co., Ltd.). The taken tissue was rinsed with running water for several hours, dehydrated through a series of ethanol solutions (70%, 80%, 90%), and then treated with a mixture of pure alcohol and xylene at a ratio of 1:1 for 15 minutes, followed by xylene I for 15 minutes and xylene II for 15 minutes until transparent. The tissue was then placed in a mixture of xylene and paraffin at a ratio of 1:1 for 15 minutes, followed by immersion with paraffin I and paraffin II each for 50-60 minutes. The tissue was embedded in paraffin and sectioned.

With CCc1cc(O)c(F)cc1-c1ccc2c(-c3nc4c([nH]3)CN(C(=O)N3CC[C@H](O)C3)C4)n[nH]c2c1 [MDI-1228, (S)-(2-(6-(2-ethyl-5-fluoro-4-hydroxyphenyl)-1H-indazol-3-yl)-4,6-dihydropyrrolo[3,4-d]imidazol-5-(1H)-yl)(3-hydroxylpyrrolidin-1-yl)ketone] the “Skin HE staining (hair follicles)” value (0.5%, 1%, 3% MDI-1228 gel) was “some therapeutic effect”, the “Area under the curve (AUC) of hair growth scores” value (0.5%, 1%, 3% MDI-1228 gel twice daily, vs. blank gel group) was “significantly promoted hair growth in alopecia areata animals” and the “Hair growth scores after 21 days” value (3% MDI-1228 gel) was “the best effect”. The “Hair growth scores after 21 days” value (all MDI-1228 treatment groups (0.5%, 1%, 3% gel), vs. model group) was “significantly higher than the model group” and the “Symptoms of alopecia areata (conclusion)” value (mouse, in vivo) was “can improve the symptoms of alopecia areata in mice to a certain extent”.
